Test results: patent publication US4593104A, “2-halo-N-(azole-1-yl-methyl)-substituted acetanilides” (BASF Aktiengesellschaft, priority 1976, dated 1986)
Where “and” joins values, the source holds several entries; their conditions need not be identical. Identical values can stand only once.

Key:
Glyc. max [1] = test: preemergence application in the open, % damage; assay type: in vivo, Glycine max
Experimental: (§1) The experiments were carried out on small plots. The soil was a sandy loam having a pH of from 5 to 6 and containing from 1 to 1.5% humus. The treatment was preemergence, the active ingredients being applied immediately or at the latest 3 days after sowing. The crop plants were sown in rows. The weed flora was made up of the most widely varying species and was natural; the weed flora depended on the time of the year and in part on the crop (e.g., spring-germinating, summer-germinating). The substances were emulsified or suspended in water as the vehicle, and applied by means of a motor-driven plot spray mounted on a hitch. When no rain fell, the plots were watered to ensure germination and growth of the crop plants and weeds. All the experiments were run for several weeks. Over this period, assessments were made at certain intervals on the 0 to 100 scale.

Sorgh. bicol. = test: preemergence treatment in the greenhouse, % damage; assay type: in vivo, Sorghum bicolor
From the text: (§2) The vessels employed were plastic flowerpots having a volume of 300 cm^3; the substrate was a sandy loam containing about 1.5% humus. The seeds of the test plants (see Table 1) were sown shallow, and separated according to species. In the case of Cyperus esculentus, pregerminated tubers were planted. In the preemergence treatment, the active ingredients were then immediately applied to the surface of the soil. They were suspended or emulsified in water as the vehicle, and sprayed through atomizing nozzles. After the agents had been applied, the vessels were lightly sprinkler-irrigated to set germination and growth going, and to activate the chemical agents. The vessels were then covered with transparent plastic hoods until the plants had taken root. This cover ensured uniform germination of the test plants (to the extent that this was not impaired by the chemicals), and prevented readily volatile substances from evaporating.
(§3) For postemergence treatment, the plants were first grown to a height of from 3 to 10 cm, depending on their habit, before treated. Hoods were not placed on the pots. The experiments were set up in the greenhouse, hotter areas (25° to 40° C.) being preferred for heat-loving species, and 15° to 30° C. for plants from moderate climates. The experiments were carried out for from 4 to 6 weeks. During this period the plants were tended and their reaction to the various treatments was assessed. The following tables contain the substances investigated, the application rates in kg/ha of active ingredient, and the test plant species. Assessments were made on a 0 to 100 scale, 0 denoting no damage or normal emergence, and 100 denoting no emergence or complete destruction of at least the visible plant parts.

Cyper. escul. [2] = test: postemergence application in the greenhouse, % damage; assay type: in vivo, Cyperus esculentus
From the text: as §2, §3

Stellaria media = test: preemergence application in the open, % damage; assay type: in vivo; conditions: 2.0 kg/ha
Experimental: as §1

Brassica napus = test: preemergence application in the open, % damage; assay type: in vivo; conditions: 2.0 kg/ha
Experimental: as §1

Alopec. myosur. [3] = test: preemergence application in the open, % damage; assay type: in vivo; conditions: 2.0 kg/ha
Experimental: as §1

Chenop. spp. = test: preemergence application in the open, % damage; assay type: in vivo
Experimental: as §1

Echin. c.g. [4] = test: preemergence application in the open, % damage; assay type: in vivo
Experimental: as §1

Anth./Matric. = test: preemergence application in the open, % damage; assay type: in vivo; conditions: 2.0 kg/ha
Experimental: as §1

Galins. spp. = test: preemergence application in the open, % damage; assay type: in vivo
Experimental: as §1

Amar. retro. [5] = test: preemergence application in the open, % damage; assay type: in vivo; conditions: 1,0 kg/ha
Experimental: as §1

Glyc. max [6] = test: preemergence treatment in the greenhouse, % damage; assay type: in vivo, Glycine max; conditions: 0.25 kg/ha
In short: (§4)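 Test species were sown separately in sandy loam and held at 25–40 °C (heat-loving) or 15–30 °C (temperate). Actives in water went onto the soil surface immediately (preemergence) or onto 3–10 cm plants (postemergence). A 0–100 scale rates emergence loss or destruction over 4–6 weeks.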

Cyper. escul. [7] = test: preemergence treatment in the greenhouse, % damage; assay type: in vivo, Cyperus esculentus
From the text: as §2, §3

Gossyp. hirs. = test: preemergence treatment in the greenhouse, % damage; assay type: in vivo, Gosspyium hirsutum
From the text: as §2, §3

Cyp. diff. = test: preemergence treatment in the greenhouse, % damage; assay type: in vivo
In short: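 Plants in humus-poor sandy loam (~1.5%) received kg/ha doses of active as aqueous spray. Preemergence sprays preceded irrigation and hooding until rooting; postemergence sprays, without hoods, hit 3–10 cm plants. Injury was assessed 0–100 across 4–6 weeks.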

Bromus spp. = test: preemergence treatment in the greenhouse, % damage; assay type: in vivo
In short: as §4

Euph. gen. = test: preemergence treatment in the greenhouse, % damage; assay type: in vivo
In short: as §4

Alopec. myosur. [8] = test: preemergence treatment in the greenhouse, % damage; assay type: in vivo
In short: as §4

Poa annua = test: preemergence treatment in the greenhouse, % damage; assay type: in vivo
In short: as §4

Solanum nigrum = test: preemergence treatment in the greenhouse, % damage; assay type: in vivo
In short: as §4

Echin. c.g. [9] = test: preemergence treatment in the greenhouse, % damage; assay type: in vivo
In short: as §4

Sorgh. halep. = test: preemergence treatment in the greenhouse, % damage; assay type: in vivo
In short: as §4

Stell. med. [10] = test: preemergence treatment in the greenhouse, % damage; assay type: in vivo
In short: as §4

Matric. spp. [11] = test: preemergence treatment in the greenhouse, % damage; assay type: in vivo
In short: as §4

Setaria spp. [12] = test: preemergence treatment in the greenhouse, % damage; assay type: in vivo
In short: as §4

Zea mays = test: preemergence treatment in the greenhouse, % damage; assay type: in vivo
In short: as §4

Chrys. seget. [13] = test: preemergence treatment in the greenhouse, % damage; assay type: in vivo
In short: as §4

Amar. retro. [14] = test: preemergence treatment in the greenhouse, % damage; assay type: in vivo
In short: as §4

Alopec. myosur. [15] = test: postemergence application in the greenhouse, % damage; assay type: in vivo
From the text: as §2, §3

Stell. med. [16] = test: as above; assay type: in vivo
From the text: as §2, §3

Matric. spp. [17] = test: as above; assay type: in vivo
From the text: as §2, §3

Setaria spp. [18] = test: as above; assay type: in vivo
From the text: as §2, §3

Chrys. seget. [19] = test: as above; assay type: in vivo
From the text: as §2, §3

Avena fat. = test: as above; assay type: in vivo
From the text: as §2, §3

[20] = one value printed for two rates (0.25 0.5 kg/ha)

## CCc1cccc(CC)c1N(COC)C(=O)CCl [prior art, 2-chloro-2',6'-diethyl-N-methoxymethyl-acetanilide, reference compound]
Glyc. max [1]; 0,1 kg/ha
  % damage: 0%
Glyc. max [1]; 1,0 kg/ha
  % damage: 0%
Sorgh. bicol.; 1.0 kg/ha
  % damage: 0%
Sorgh. bicol.; 2.0 kg/ha
  % damage: 0%
Cyper. escul. [2]; 1.0 kg/ha
  % damage: 42%
Cyper. escul. [2]; 2.0 kg/ha
  % damage: 55%
Stellaria media
  % damage: 15%
Brassica napus
  % damage: 5%
Alopec. myosur. [3]
  % damage: 65%
Chenop. spp.; 0,1 kg/ha
  % damage: 10%
Chenop. spp.; 1,0 kg/ha
  % damage: 13%
Echin. c.g. [4]; 0,1 kg/ha
  % damage: 65%
Echin. c.g. [4]; 1,0 kg/ha
  % damage: 73%
Anth./Matric.
  % damage: 53%
Galins. spp.; 0,1 kg/ha
  % damage: 30%
Galins. spp.; 1,0 kg/ha
  % damage: 55%
Amar. retro. [5]
  % damage: 80%
Glyc. max [6]
  % damage: 10%
Cyper. escul. [7]; 0.5 kg/ha
  % damage: 40%
Cyper. escul. [7]; 1.0 kg/ha
  % damage: 50%
Cyper. escul. [7]; 2.0 kg/ha
  % damage: 60%
Gossyp. hirs.; 0.25 kg/ha
  % damage: 0%
Gossyp. hirs.; 0.5 kg/ha
  % damage: 0%
Gossyp. hirs.; 1.0 kg/ha
  % damage: 20% and 10%
Gossyp. hirs.; 2.0 kg/ha
  % damage: 40%
Cyp. diff.; 0.125 kg/ha
  % damage: 65%
Cyp. diff.; 0.25 kg/ha
  % damage: 70% and 100%
Cyp. diff.; 0.5 kg/ha
  % damage: 100%
Cyp. diff.; 1.0 kg/ha
  % damage: 100%
Cyp. diff.; [20]
  % damage: 65%
Bromus spp.; 0.125 kg/ha
  % damage: 50%
Bromus spp.; 0.25 kg/ha
  % damage: 80% and 88%
Bromus spp.; 0.5 kg/ha
  % damage: 90%
Bromus spp.; 1.0 kg/ha
  % damage: 50%
Bromus spp.; 2.0 kg/ha
  % damage: 70%
Euph. gen.; 0.5 kg/ha
  % damage: 25% and 20% and 30%
Euph. gen.; 1.0 kg/ha
  % damage: 45% and 50%
Euph. gen.; 2.0 kg/ha
  % damage: 100%
Alopec. myosur. [8]; 0.25 kg/ha
  % damage: 40%
Alopec. myosur. [8]; 0.5 kg/ha
  % damage: 80%
Alopec. myosur. [8]; 1.0 kg/ha
  % damage: 80%
Poa annua; 0.125 kg/ha
  % damage: 80%
Poa annua; 0.5 kg/ha
  % damage: 15%
Solanum nigrum; 0.25 kg/ha
  % damage: 50%
Solanum nigrum; 0.5 kg/ha
  % damage: 80% and 95%
Solanum nigrum; 1.0 kg/ha
  % damage: 100%
Solanum nigrum; 2.0 kg/ha
  % damage: 100%
Echin. c.g. [9]; 0.25 kg/ha
  % damage: 95%
Echin. c.g. [9]; 0.5 kg/ha
  % damage: 65% and 100%
Echin. c.g. [9]; 2.0 kg/ha
  % damage: 95% and 90%
Sorgh. halep.; 0.125 kg/ha
  % damage: 40%
Sorgh. halep.; 0.25 kg/ha
  % damage: 38% and 50% and 30%
Sorgh. halep.; 0.5 kg/ha
  % damage: 50% and 40%
Sorgh. halep.; 1.0 kg/ha
  % damage: 70%
Stell. med. [10]; 0.25 kg/ha
  % damage: 20%
Stell. med. [10]; 0.5 kg/ha
  % damage: 70%
Stell. med. [10]; 1.0 kg/ha
  % damage: 70%
Matric. spp. [11]; 0.25 kg/ha
  % damage: 50%
Matric. spp. [11]; 0.5 kg/ha
  % damage: 80%
Matric. spp. [11]; 1.0 kg/ha
  % damage: 90%
Setaria spp. [12]; 0.25 kg/ha
  % damage: 70%
Setaria spp. [12]; 0.5 kg/ha
  % damage: 60% and 90%
Setaria spp. [12]; 1.0 kg/ha
  % damage: 90% and 95% and 100%
Setaria spp. [12]; 2.0 kg/ha
  % damage: 100%
Zea mays; 1.0 kg/ha
  % damage: 0%
Zea mays; 2.0 kg/ha
  % damage: 0%
Chrys. seget. [13]; 0.25 kg/ha
  % damage: 30%
Chrys. seget. [13]; 0.5 kg/ha
  % damage: 0%
Amar. retro. [14]; 0.25 kg/ha
  % damage: 72% and 80%
Amar. retro. [14]; 0.5 kg/ha
  % damage: 100% and 80%
Amar. retro. [14]; 2.0 kg/ha
  % damage: 100% and 50%
Amar. retro. [14]; [20]
  % damage: 75%
Alopec. myosur. [15]; 1.0 kg/ha
  % damage: 60%
Alopec. myosur. [15]; 2.0 kg/ha
  % damage: 60%
Stell. med. [16]; 1.0 kg/ha
  % damage: 0%
Stell. med. [16]; 2.0 kg/ha
  % damage: 30%
Matric. spp. [17]; 1.0 kg/ha
  % damage: 50%
Matric. spp. [17]; 2.0 kg/ha
  % damage: 50%
Setaria spp. [18]; 1.0 kg/ha
  % damage: 68%
Setaria spp. [18]; 2.0 kg/ha
  % damage: 68%
Chrys. seget. [19]; 1.0 kg/ha
  % damage: 15%
Chrys. seget. [19]; 2.0 kg/ha
  % damage: 15%
Avena fat.; 1.0 kg/ha
  % damage: 50%
Avena fat.; 2.0 kg/ha
  % damage: 70%
